In PubChem BioAssay AID1648 (Sanford-Burnham Center for Chemical Genomics, 2009):
Active and inactive are the calls of the source. How the calls were made is not given here.

What follows are molecules tested against Serine/threonine-protein kinase mTOR (Homo sapiens) (UniProt P42345) (assay: mTOR FRB domain ligand binding – biophysical, NMR (AID 1648)). Conditions: NMR binding to FRB domain, chemical shift.
Sequence of Serine/threonine-protein kinase mTOR (Homo sapiens) (P42345 2015-2114): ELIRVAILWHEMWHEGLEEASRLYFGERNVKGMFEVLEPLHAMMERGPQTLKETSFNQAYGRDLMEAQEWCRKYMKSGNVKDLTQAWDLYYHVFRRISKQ

Row | Compound | Kd
1 | COC(=O)Nc1nc2c(s1)CCCC2 | > 4 mM (inactive)
2 | C=C1CCC2C(CC2(C)C)C(=C)CC/C1=N/O (configuration not stated) | > 4 mM (inactive)
3 | Nc1ccnc(C(=O)O)c1 | > 4 mM (inactive)
4 | COc1ccc(Cl)cc1NC(=O)c1ccco1 | > 4 mM (inactive)
5 | O=C(O)C1CCN(S(=O)(=O)c2cccs2)CC1 | > 4 mM (inactive)
6 | CC1=NN2C(=N)/C(=C\c3cccs3)C(=O)N=C2S1 | > 4 mM (inactive)
7 | CNC(=O)C1CCCN(S(C)(=O)=O)C1 (configuration not stated) | > 4 mM (inactive)
8 | Cc1cc(C(=O)NC2=NCCS2)cs1 | > 4 mM (inactive)
9 | N=C1/C(=C\c2ccco2)C(=O)N=C2SC=NN12 | > 4 mM (inactive)
10 | CC(C)(OC(=O)c1ccccc1)[C@@H]1Cc2cc3ccc(=O)oc3cc2O1 | > 4 mM (inactive)
11 | O=C(O)CSCC(=O)Nc1cccc(O)c1 | > 4 mM (inactive)
12 | C[C@@H]1O[C@@H](O[C@H]2[C@H](Oc3cc(O)c4c(=O)cc(-c5ccc(O)cc5)oc4c3)O[C@H](CO)[C@@H](O)[C@@H]2O)[C@H](O)[C@H](O)[C@H]1O | > 4 mM (inactive)
13 | Cc1noc(C)c1C(=O)Nc1ccccc1-c1ccccc1 | > 4 mM (inactive)
14 | O=c1cnnc(N2CCCCC2)[nH]1 | > 4 mM (inactive)
15 | Cn1c(CNc2ccccc2)cc(=O)n(C)c1=O | > 4 mM (inactive)
16 | C=C(C)[C@H]1Cc2c(ccc3c2O[C@@H]2COc4cc(OC)c(OC)cc4[C@@H]2C3=O)O1 | > 4 mM (inactive)
17 | Cc1ccccc1-n1c(-c2ccncc2)n[nH]c1=S | > 4 mM (inactive)
18 | NC[C@H]1O[C@H](O[C@H]2[C@H](O)[C@@H](O[C@H]3O[C@H](CO)[C@@H](O)[C@H](N)[C@H]3O)[C@H](N)C[C@@H]2N)[C@H](N)[C@@H](O)[C@@H]1O | > 4 mM (inactive)
19 | NC(=O)c1ccsc1NC(=O)c1ccco1 | > 4 mM (inactive)
20 | Cc1cc(N2CCCC2=O)c(N)cc1N | > 4 mM (inactive)
21 | OC[C@H]1O[C@@H](Oc2ccc(O)cc2)[C@H](O)[C@@H](O)[C@@H]1O | > 4 mM (inactive)
22 | Cn1c(CN2CC(c3ccccc3)CC2=O)n[nH]c1=S (configuration not stated) | > 4 mM (inactive)
23 | O=c1ccc2cc(O[C@@H]3O[C@H](CO)[C@@H](O)[C@H](O)[C@H]3O)c(O)cc2o1 | > 4 mM (inactive)
24 | Cc1cccc(C(C)C)c1NC(=O)c1cccnc1 | > 4 mM (inactive)
25 | COC(=O)c1noc(C)c1C(C)=O | > 4 mM (inactive)
26 | O=C(Nc1ccccc1)C(=O)NC1CC1 | > 4 mM (inactive)

Row | Compound | Kd
27 | C/C=C/COc1nc2c(c(=O)n(C)c(=O)n2C)n1C | > 4 mM (inactive)
28 | CC(=O)c1ccc(CC2SC(N)=NC2=O)cc1 (configuration not stated) | > 4 mM (inactive)
29 | OCCOc1ccc(C2=NCCO2)cc1 | > 4 mM (inactive)
30 | CC[C@H](/C=C/C(C)C1CCC2C3CCC4=CC(=O)CC[C@]4(C)C3CC[C@]12C)C(C)C (some centres not stated) | > 4 mM (inactive)
31 | CCOc1cc(S(=O)(=O)n2nc(C)cc2C)ccc1F | > 4 mM (inactive)
32 | CC(C)(C)C(=O)N1CCCC1C(=O)O (configuration not stated) | > 4 mM (inactive)
33 | NC(=O)Nc1cccc(C(F)(F)F)c1 | > 4 mM (inactive)
34 | CN(C)c1oc(-c2ccccc2Cl)nc1C#N | > 4 mM (inactive)
35 | Cc1cc(N)n(C2CCOC(C)(C)C2)n1 (configuration not stated) | > 4 mM (inactive)
36 | O=C1CC(=O)N(c2ccccc2F)C(=S)N1 | > 4 mM (inactive)
37 | CS(=O)(=O)c1ccc(N)cc1 | > 4 mM (inactive)
38 | Cc1c(C(=O)Nc2ccncc2)oc2c1C(=O)CC(C)(C)C2 | > 4 mM (inactive)
39 | c1ccc(SCc2nc(-c3ccncc3)no2)cc1 | > 4 mM (inactive)
40 | CC(=O)Nc1ccccc1-c1ccccc1NC(C)=O | > 4 mM (inactive)
41 | Cn1cc(Cl)c(C(=O)NC2CCCC2)n1 | > 4 mM (inactive)
42 | O=C(O)C1Cc2ccccc2O1 (configuration not stated) | > 4 mM (inactive)
43 | Cn1cnnc1SCC(=O)Nc1nccs1 | > 4 mM (inactive)
44 | COc1cc(O)c2c(c1)C(=O)c1cc(C)cc(O)c1C2=O | > 4 mM (inactive)
45 | Cc1cc(C)c(-c2cc(C(F)(F)F)no2)c(=O)[nH]1 | > 4 mM (inactive)
46 | CCOC(=O)c1c(C)cc(O)c(C=O)c1O | > 4 mM (inactive)
47 | CC(=O)O[C@@H]1CC2C(C)(C)CCC(=O)[C@]2(C)C2CC[C@@]3(C)[C@H](c4ccoc4)OC(=O)C4OC43[C@@]21C (some centres not stated) | > 4 mM (inactive)
48 | O=C(O)C(CO)c1ccccc1 (configuration not stated) | > 4 mM (inactive)
49 | c1ccc(-c2n[nH]c(-c3ccccn3)n2)nc1 | > 4 mM (inactive)
50 | Nc1nc(-c2ccc(F)c(F)c2)cs1 | > 4 mM (inactive)
51 | COC(=O)C[C@H]1C2(C)CC34OC5(C)O[C@@]6([C@H](OC)C(OC(=O)C(C)C)[C@]7(C)C(/C(=C(/OC)C(C)C)C(=O)O[C@H]7c7ccoc7)[C@@]6(O5)[C@H](OC)[C@@]3(OC)C2OC(C)=O)[C@]14C (some centres not stated) | > 4 mM (inactive)
52 | COc1cc(NC(=O)c2ccccc2)c(C)cc1N | > 4 mM (inactive)

Row | Compound | Kd
53 | COc1ccc(C2(C)NC(=O)NC2=O)cc1 (configuration not stated) | > 4 mM (inactive)
54 | Nc1nc(CSc2ncn(-c3ccccc3)n2)cs1 | > 4 mM (inactive)
55 | Cn1c(=O)n(C)c2nc([N+](=O)[O-])c(Cl)cc21 | > 4 mM (inactive)
56 | S=C=NCc1ccccc1 | > 4 mM (inactive)
57 | O=C1C2C3CCC(O3)C2C(=O)N1c1cccc(F)c1 (configuration not stated) | > 4 mM (inactive)
58 | c1ccc2[nH]c(SCc3cscn3)nc2c1 | > 4 mM (inactive)
59 | COc1cc2c(cc1-c1cc3cc4ccoc4cc3oc1=O)OCO2 | > 4 mM (inactive)
60 | Cc1cc2ncc(C(=O)O)c(C)n2n1 | > 4 mM (inactive)
61 | O=C(O[C@@H]1Cc2c(O)cc(O)cc2O[C@@H]1c1cc(O)c(O)c(O)c1-c1c([C@H]2Oc3cc(O)cc(O)c3C[C@H]2O)cc(O)c(O)c1O)c1cc(O)c(O)c(O)c1 | > 4 mM (inactive)
62 | Cc1cc(C(=O)NC(C)c2ccncc2)cs1 (configuration not stated) | > 4 mM (inactive)
63 | CC(=O)OC/C=C(\C)CC/C=C(\C)CC/C=C(\C)CC/C=C(\C)CC/C=C(\C)CC/C=C(\C)CC/C=C(\C)CC/C=C(\C)CCC=C(C)C | > 4 mM (inactive)
64 | CC(=O)NN1C(=O)c2cccc3cccc(c23)C1=O | > 4 mM (inactive)
65 | CNC(=O)c1cc(C)c(-c2ccccc2)s1 | > 4 mM (inactive)
66 | S=c1[nH]ncn1-c1ccccc1 | > 4 mM (inactive)
67 | COc1cc(C(C)=O)ccc1OC(=O)N1CCOCC1 | > 4 mM (inactive)
68 | Cc1cc(=O)oc2cc3c(cc12)OCCO3 | > 4 mM (inactive)
69 | OCC1CN(Cc2ccccc2)CCO1 (configuration not stated) | > 4 mM (inactive)
70 | O=C(O)c1cc2ccccc2s1 | > 4 mM (inactive)
71 | O=C(O)c1cc(O)c2c(c1)[C@@H]([C@H]1c3cc(C(=O)O)cc(O)c3C(=O)c3c(O[C@H]4O[C@H](CO)[C@@H](O)[C@H](O)[C@H]4O)cccc31)c1cccc(O[C@H]3O[C@H](CO)[C@@H](O)[C@H](O)[C@H]3O)c1C2=O | > 4 mM (inactive)
72 | OCn1nnn(-c2ccccc2)c1=S | > 4 mM (inactive)
73 | Cc1c(CO)cnn1-c1ccc(F)cc1 | > 4 mM (inactive)
74 | Nc1nc(NCc2ccco2)nn1-c1ccccc1 | > 4 mM (inactive)
75 | COc1ccc2[nH]cc(CCNC(C)=O)c2c1 | > 4 mM (inactive)
76 | CCOC(=O)CC1NCCNC1=O (configuration not stated) | > 4 mM (inactive)
77 | CC(=O)N/N=C(\C)c1cccc(N)c1 | > 4 mM (inactive)
